From patent US12252524B2, “GIP/GLP1 co-agonist compounds” (Eli Lilly and Company, priority 2018, dated 2025)
Numbered stars: 1 amine (or outer) side, 2 acyl side, 3 side chain; on linkers, the order of the positions; unused ones are H or OH. Square brackets hold non-standard residues; d marks the D form. Side chains are listed from the residue outwards. Peptide text beside a SMILES is read from it. * marks the point of attachment. C20 diacid = O=C(O)CCCCCCCCCCCCCCCCCCC(=O)*; γGlu = O=C(O)[C@H](CCC(=O)[*:2])N[*:1]; αMeL = CC(C)C[C@](C)(N)C(=O)O; AEEA = NCCOCCOCC(=O)O; Aib = CC(C)(N)C(=O)O

Tests used:
human GLP-1R [1] = target: T1, human GLP-1R (Homo sapiens, UniProt P43220); assay: [125I]-GLP-1 binding (SPA), human GLP-1 receptor; set-up: expressed in transfected cells; crude membranes; conditions: read-out: hGLP1R Ki, (nM) (SEM, n)
How it was run: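 Membranes: hypotonic lysis (50 mM Tris HCl, pH 7.5, protease inhibitors), Potter-Elvehjem homogenization, high-speed pellet (35000×g 1 h or 25000×g 30 min, 4° C.). Buffer: 25 mM HEPES pH 7.4, 2.5 mM CaCl2, 1 mM MgCl2. Four-parameter IC50 fit; Ki as geometric mean ± SEM.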

human GLP-1R [2] = target: T1, human GLP-1R; assay: GLP-1R CHO cell β-arrestin recruitment assay; type: cell-based; set-up: host or cells: CHO-K1 PathHunter cells, assay-ready frozen; conditions: for EC50: CHO-K1 cells, PathHunter β-arrestin-2 recruitment, 0.1% casein, read-out: hGLP1R B-Arrestin2 Rel EC50 uM (SEM, n); for hGLP1R B-Arrestin2 % Top: normalized to GLP-1 maximum control
How it was run: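 PathHunter CHO-K1 cells with ProLink-tagged human GLP-1R and enzyme-acceptor-tagged β-arrestin-2 treated with serially diluted peptides in assay buffer containing 0.1% hydrolyzed casein, 90 min at 37 °C.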

human Gcg receptor = target: T2, human Gcg receptor (Homo sapiens, UniProt P47871); assay: [125I]-Glucagon binding (SPA), human Gcg receptor; conditions: read-out: hGLcgR Ki, nM (SEM, n)
T2 construct: expressed in transfected cells; crude membranes
How it was run: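 Crude membranes from cells expressing the receptor, prepared by hypotonic lysis in 50 mM Tris HCl pH 7.5 with protease inhibitors, homogenization and differential centrifugation, were used in a WGA-bead SPA. Binding buffer: 25 mM HEPES pH 7.4, 2.5 mM CaCl2, 1 mM MgCl2, bacitracin, Tween-20.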

human GIP receptor = target: T3, human GIP receptor (Homo sapiens, UniProt P48546); assay: [125I]-GIP binding (SPA), human GIP receptor; conditions: read-out: hGIPR Ki, nM (SEM, n)
T3 construct: expressed in transfected cells; crude membranes
T3 sequence (P48546 22-466): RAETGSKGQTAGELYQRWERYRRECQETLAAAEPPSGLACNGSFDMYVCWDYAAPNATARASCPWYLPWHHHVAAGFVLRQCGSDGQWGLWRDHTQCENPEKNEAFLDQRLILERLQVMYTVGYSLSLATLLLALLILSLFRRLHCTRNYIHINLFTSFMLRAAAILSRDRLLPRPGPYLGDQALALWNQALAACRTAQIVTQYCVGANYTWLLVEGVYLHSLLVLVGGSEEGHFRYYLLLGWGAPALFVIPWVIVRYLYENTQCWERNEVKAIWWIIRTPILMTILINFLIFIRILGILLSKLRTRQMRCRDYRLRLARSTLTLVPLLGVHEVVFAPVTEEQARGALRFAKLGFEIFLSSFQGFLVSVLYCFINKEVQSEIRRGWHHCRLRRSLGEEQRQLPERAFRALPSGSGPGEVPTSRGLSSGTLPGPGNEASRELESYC

[3] = target: T4, gastric inhibitory peptide receptor (GIPR) (Homo sapiens, UniProt P48546); assay: cAMP pharmacological functional assay in presence of casein, hGIPR; type: cell-based; conditions: HEK293 cells expressing hGIPR, 0.1% Casein, geometric mean; read-out: hGIPR cAMP Rel EC50 nM (SEM, n)
T4 sequence (P48546 22-466): T3 sequence (P48546 22-466)

[4] = target: human GLP-1 receptor (GLP-1R) (Homo sapiens, UniProt P43220); assay: cAMP pharmacological functional assay in presence of casein, hGLP-1R; type: cell-based; conditions: HEK293 cells expressing hGLP-1R, 0.1% Casein, geometric mean; read-out: hGLP1R cAMP Rel EC50 nM (SEM, n)
human GLP-1R [5] = target: T1, human GLP-1R; assay: GLP-1R HEK293 cell membrane [35S]GTPγS binding assay; type: biochemical; set-up: expressed in transfected cells; host or cells: HEK293 cells expressing human GLP-1R; membranes; conditions: HEK293 cell membranes expressing human GLP-1R, [35S]GTPγS binding; read-out: hGLP1R GTPgS Rel EC50 nM (SEM, n)
How it was run: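 Membranes from HEK293 cells expressing the receptor incubated with peptide and […] [35S]GTPγS in HEPES pH 7.4 buffer with NaCl, MgCl2, saponin and BSA, 30 min at room temperature. Gαs-bound label captured by anti-Gαs antibody/SPA beads and counted; EC50 from four-parameter logistic fit.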

T1 sequence (P43220 24-463): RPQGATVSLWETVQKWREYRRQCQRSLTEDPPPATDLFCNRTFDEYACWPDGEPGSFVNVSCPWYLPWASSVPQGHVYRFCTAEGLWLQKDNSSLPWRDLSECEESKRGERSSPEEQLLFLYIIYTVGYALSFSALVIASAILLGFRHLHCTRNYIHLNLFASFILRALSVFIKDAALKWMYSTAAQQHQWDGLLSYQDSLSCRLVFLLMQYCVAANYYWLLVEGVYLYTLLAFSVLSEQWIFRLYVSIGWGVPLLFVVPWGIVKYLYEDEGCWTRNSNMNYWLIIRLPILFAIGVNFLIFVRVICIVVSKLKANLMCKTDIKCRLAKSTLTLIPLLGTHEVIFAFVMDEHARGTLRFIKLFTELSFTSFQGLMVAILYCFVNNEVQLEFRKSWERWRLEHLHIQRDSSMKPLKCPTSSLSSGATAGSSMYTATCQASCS
T2 sequence (P47871 26-477): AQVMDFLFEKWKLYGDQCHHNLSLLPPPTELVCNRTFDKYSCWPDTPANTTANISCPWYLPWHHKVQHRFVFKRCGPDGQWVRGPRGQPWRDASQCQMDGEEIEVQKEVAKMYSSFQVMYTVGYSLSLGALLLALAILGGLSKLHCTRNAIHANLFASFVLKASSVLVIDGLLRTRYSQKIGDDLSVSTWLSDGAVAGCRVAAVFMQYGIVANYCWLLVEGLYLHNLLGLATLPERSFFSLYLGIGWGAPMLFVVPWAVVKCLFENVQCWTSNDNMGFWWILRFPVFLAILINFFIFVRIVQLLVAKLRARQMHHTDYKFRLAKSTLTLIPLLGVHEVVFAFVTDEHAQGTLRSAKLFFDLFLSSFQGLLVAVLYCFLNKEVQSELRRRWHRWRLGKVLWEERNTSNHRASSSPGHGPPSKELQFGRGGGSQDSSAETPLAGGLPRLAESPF
human GLP-1 receptor (GLP-1R), sequence (P43220 24-463): as the sequence (P43220 24-463) above

SMILES | Ki (human GLP-1R [1]) [nM] | EC50 (human GLP-1R [2]) [µM] | hGLP1R B-Arrestin2 % Top (human GLP-1R [2]) [%] | Ki (human Gcg receptor) [nM] | Ki (human GIP receptor) [nM] | EC50 [3] [nM] | EC50 [4] [nM] | EC50 (human GLP-1R [5]) [nM]
CC[C@H](C)[C@H](NC(=O)[C@H](CC(C)C)NC(=O)[C@H](Cc1ccc(O)cc1)NC(=O)[C@H](CCC(=O)O)NC(=O)[C@@H](NC(=O)[C@H](Cc1ccccc1)NC(=O)[C@H](C)NC(=O)C(C)(C)NC(=O)[C@H](CCC(N)=O)NC(=O)[C@H](C)NC(=O)[C@H](CCCCNC(=O)COCCOCCNC(=O)COCCOCCNC(=O)CC[C@H](NC(=O)CCCCCCCCCCCCCCCCCCC(=O)O)C(=O)O)NC(=O)[C@H](CCC(=O)O)NC(=O)[C@H](CC(=O)O)NC(=O)[C@H](CC(C)C)NC(=O)[C@](C)(CC(C)C)NC(=O)[C@@H](NC(=O)[C@H](CO)NC(=O)[C@H](Cc1ccc(O)cc1)NC(=O)[C@H](CC(=O)O)NC(=O)[C@H](CO)NC(=O)[C@@H](NC(=O)[C@H](Cc1ccccc1)NC(=O)[C@@H](NC(=O)CNC(=O)[C@H](CCC(=O)O)NC(=O)C(C)(C)NC(=O)[C@@H](N)Cc1ccc(O)cc1)[C@@H](C)O)[C@@H](C)O)[C@@H](C)CC)[C@@H](C)CC)C(=O)N[C@@H](C)C(=O)NCC(=O)NCC(=O)N1CCC[C@H]1C(=O)N[C@@H](CO)C(=O)N[C@@H](CO)C(=O)NCC(=O)N[C@@H](C)C(=O)N1CCC[C@H]1C(=O)N1CCC[C@H]1C(=O)N1CCC[C@H]1C(=O)N[C@@H](CO)C(N)=O [Example 332] (H-Y[Aib]EGTFTSDYSI[αMeL]LDEK([AEEA-AEEA-γGlu-C20 diacid])AQ[Aib]AFIEYLIAGGPSSGAPPPS-NH2) | 7.87 | 0.0171 | 45.6 | 397 | 0.0497 | 0.0745 | 0.184 | 0.453
CC[C@H](C)[C@H](NC(=O)[C@H](CC(C)C)NC(=O)[C@H](Cc1ccc(O)cc1)NC(=O)[C@H](CCC(=O)O)NC(=O)[C@@H](NC(=O)[C@H](Cc1ccccc1)NC(=O)[C@H](CCC(=O)O)NC(=O)C(C)(C)NC(=O)[C@H](CCC(N)=O)NC(=O)[C@H](C)NC(=O)[C@H](CCCCNC(=O)COCCOCCNC(=O)COCCOCCNC(=O)CC[C@H](NC(=O)CCCCCCCCCCCCCCCCCCC(=O)O)C(=O)O)NC(=O)[C@H](CCCCN)NC(=O)[C@H](CC(=O)O)NC(=O)[C@H](CC(C)C)NC(=O)[C@](C)(CC(C)C)NC(=O)[C@@H](NC(=O)[C@H](CO)NC(=O)[C@H](Cc1ccc(O)cc1)NC(=O)[C@H](CC(=O)O)NC(=O)[C@H](CO)NC(=O)[C@@H](NC(=O)[C@H](Cc1ccccc1)NC(=O)[C@@H](NC(=O)CNC(=O)[C@H](CCC(=O)O)NC(=O)C(C)(C)NC(=O)[C@@H](N)Cc1ccc(O)cc1)[C@@H](C)O)[C@@H](C)O)[C@@H](C)CC)[C@@H](C)CC)C(=O)N[C@@H](CCC(=O)O)C(=O)NCC(=O)NCC(=O)N1CCC[C@H]1C(=O)N[C@@H](CO)C(=O)N[C@@H](CO)C(=O)NCC(=O)N[C@@H](C)C(=O)N1CCC[C@H]1C(=O)N1CCC[C@H]1C(=O)N1CCC[C@H]1C(=O)N[C@@H](CO)C(N)=O [Example 333] (H-Y[Aib]EGTFTSDYSI[αMeL]LDKK([AEEA-AEEA-γGlu-C20 diacid])AQ[Aib]EFIEYLIEGGPSSGAPPPS-NH2) | 4.25 | 0.0548 | 58.2 | 578 | 0.0634 | 0.0492 | 0.131 | 0.442
